Assay results as given in ChEMBL document CHEMBL1145498, “A systematic interaction map of validated kinase inhibitors with Ser/Thr kinases” (Proc Natl Acad Sci U S A, 2007).

Experiments:
[1] = biological target: Calcium/calmodulin-dependent protein kinase type II subunit delta (Homo sapiens) (UniProt Q13557)
[2] = biological target: STE20-like serine/threonine-protein kinase (Homo sapiens) (UniProt Q9H2G2)
[3] = biological target: Serine/threonine-protein kinase OSR1 (Homo sapiens) (UniProt O95747)
Sequence of Serine/threonine-protein kinase OSR1 (Homo sapiens) (O95747 2-527 limits assumed): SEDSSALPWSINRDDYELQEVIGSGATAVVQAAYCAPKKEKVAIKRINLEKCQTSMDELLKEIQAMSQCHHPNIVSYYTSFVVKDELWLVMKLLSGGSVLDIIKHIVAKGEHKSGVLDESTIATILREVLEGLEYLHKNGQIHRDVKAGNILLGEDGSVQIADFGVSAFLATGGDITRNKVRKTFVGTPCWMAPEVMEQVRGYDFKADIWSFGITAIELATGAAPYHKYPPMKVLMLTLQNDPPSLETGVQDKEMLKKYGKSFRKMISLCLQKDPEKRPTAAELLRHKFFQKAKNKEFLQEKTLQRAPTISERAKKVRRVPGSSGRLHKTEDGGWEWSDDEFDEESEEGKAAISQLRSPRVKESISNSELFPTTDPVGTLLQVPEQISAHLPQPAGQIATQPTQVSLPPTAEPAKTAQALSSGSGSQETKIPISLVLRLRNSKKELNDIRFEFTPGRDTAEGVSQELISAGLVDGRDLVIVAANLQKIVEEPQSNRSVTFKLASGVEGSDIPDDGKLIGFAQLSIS

[4] = biological target: Mitogen-activated protein kinase 3 (Homo sapiens, UniProt P27361)
Sequence of Mitogen-activated protein kinase 3 (P27361 whole entry): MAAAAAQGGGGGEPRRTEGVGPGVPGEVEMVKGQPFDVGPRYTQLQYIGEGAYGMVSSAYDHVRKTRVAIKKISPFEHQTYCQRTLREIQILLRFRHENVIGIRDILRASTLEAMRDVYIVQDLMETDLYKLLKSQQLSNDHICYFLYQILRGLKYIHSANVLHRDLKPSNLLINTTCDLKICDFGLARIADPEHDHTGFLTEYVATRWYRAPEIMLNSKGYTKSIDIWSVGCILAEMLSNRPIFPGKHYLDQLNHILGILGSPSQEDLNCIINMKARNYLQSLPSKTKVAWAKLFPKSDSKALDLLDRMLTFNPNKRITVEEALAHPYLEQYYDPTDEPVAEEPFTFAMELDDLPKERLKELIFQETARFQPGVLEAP

[5] = biological target: Calcium/calmodulin-dependent protein kinase type II subunit beta (Homo sapiens) (UniProt Q13554)
[6] = biological target: Casein kinase I isoform gamma-3 (Homo sapiens) (UniProt Q9Y6M4)
[7] = biological target: T1, Serine/threonine-protein kinase VRK1 (Homo sapiens) (UniProt Q99986)
T1 sequence (whole entry): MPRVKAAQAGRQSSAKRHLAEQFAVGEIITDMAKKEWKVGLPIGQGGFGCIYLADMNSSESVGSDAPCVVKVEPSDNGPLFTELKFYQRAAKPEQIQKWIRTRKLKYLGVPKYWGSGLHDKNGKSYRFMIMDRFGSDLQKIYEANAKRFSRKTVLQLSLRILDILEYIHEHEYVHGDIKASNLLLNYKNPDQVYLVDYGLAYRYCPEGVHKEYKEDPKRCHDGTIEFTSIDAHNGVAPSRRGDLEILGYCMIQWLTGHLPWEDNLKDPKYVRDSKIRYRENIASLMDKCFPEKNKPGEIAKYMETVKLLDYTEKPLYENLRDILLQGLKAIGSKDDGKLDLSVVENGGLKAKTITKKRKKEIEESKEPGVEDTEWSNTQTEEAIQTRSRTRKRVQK

[8] = biological target: Casein kinase I isoform gamma-2 (Homo sapiens) (UniProt P78368)
Sequence of Casein kinase I isoform gamma-2 (Homo sapiens) (P78368 whole entry, looked up, canonical isoform): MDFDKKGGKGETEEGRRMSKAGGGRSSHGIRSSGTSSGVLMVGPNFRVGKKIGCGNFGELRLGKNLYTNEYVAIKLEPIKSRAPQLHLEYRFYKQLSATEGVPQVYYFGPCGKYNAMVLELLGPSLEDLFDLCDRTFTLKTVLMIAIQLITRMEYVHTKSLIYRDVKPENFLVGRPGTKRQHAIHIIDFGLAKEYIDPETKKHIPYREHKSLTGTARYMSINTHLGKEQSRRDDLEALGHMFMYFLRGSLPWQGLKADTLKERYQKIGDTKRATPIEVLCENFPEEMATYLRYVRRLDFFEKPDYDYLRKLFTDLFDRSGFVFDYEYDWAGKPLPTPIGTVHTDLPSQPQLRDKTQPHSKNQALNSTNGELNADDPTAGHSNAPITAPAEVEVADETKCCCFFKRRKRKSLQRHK

[9] = biological target: 5'-AMP-activated protein kinase catalytic subunit alpha-2 (Homo sapiens) (UniProt P54646)
[10] = biological target: Calcium/calmodulin-dependent protein kinase type II subunit alpha (Homo sapiens) (UniProt Q9UQM7)
[11] = biological target: Serine/threonine-protein kinase pim-3 (Homo sapiens) (UniProt Q86V86)
[12] = biological target: Dual specificity mitogen-activated protein kinase kinase 2 (Homo sapiens, UniProt P36507)
Sequence of Dual specificity mitogen-activated protein kinase kinase 2 (P36507 whole entry): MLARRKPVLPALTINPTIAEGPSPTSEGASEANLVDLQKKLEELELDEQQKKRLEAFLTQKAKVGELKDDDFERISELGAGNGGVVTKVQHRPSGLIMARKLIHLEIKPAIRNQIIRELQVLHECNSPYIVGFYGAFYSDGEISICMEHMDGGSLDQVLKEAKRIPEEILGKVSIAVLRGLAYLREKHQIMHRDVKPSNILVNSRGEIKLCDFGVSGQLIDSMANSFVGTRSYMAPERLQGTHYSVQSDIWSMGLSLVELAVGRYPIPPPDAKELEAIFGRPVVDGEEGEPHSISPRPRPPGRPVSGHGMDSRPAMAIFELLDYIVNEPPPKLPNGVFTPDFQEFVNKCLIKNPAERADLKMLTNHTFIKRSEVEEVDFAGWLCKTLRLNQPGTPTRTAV

[13] = biological target: Tyrosine-protein kinase JAK1 (Homo sapiens) (UniProt P23458)
[14] = biological target: Serine/threonine-protein kinase Chk2 (Homo sapiens, UniProt O96017)
Sequence of Serine/threonine-protein kinase Chk2 (O96017 whole entry): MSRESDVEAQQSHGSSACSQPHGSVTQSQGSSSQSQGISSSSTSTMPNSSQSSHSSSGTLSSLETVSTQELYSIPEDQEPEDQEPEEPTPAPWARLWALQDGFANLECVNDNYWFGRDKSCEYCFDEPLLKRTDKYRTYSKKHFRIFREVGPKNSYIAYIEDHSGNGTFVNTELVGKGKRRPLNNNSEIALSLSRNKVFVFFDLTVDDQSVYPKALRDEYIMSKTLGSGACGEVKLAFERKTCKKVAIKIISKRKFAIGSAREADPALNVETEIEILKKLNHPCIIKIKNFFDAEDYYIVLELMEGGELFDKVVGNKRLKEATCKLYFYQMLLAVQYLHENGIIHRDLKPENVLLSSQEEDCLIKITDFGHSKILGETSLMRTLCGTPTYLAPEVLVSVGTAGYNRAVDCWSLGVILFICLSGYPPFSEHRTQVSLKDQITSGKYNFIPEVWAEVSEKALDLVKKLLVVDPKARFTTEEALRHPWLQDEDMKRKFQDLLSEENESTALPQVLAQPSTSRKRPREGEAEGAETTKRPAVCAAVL

[15] = biological target: Death-associated protein kinase 3 (Homo sapiens) (UniProt O43293)
[16] = biological target: Serine/threonine-protein kinase PAK 5 (Homo sapiens) (UniProt Q9P286)
Sequence of Serine/threonine-protein kinase PAK 5 (Homo sapiens) (Q9P286 whole entry, looked up): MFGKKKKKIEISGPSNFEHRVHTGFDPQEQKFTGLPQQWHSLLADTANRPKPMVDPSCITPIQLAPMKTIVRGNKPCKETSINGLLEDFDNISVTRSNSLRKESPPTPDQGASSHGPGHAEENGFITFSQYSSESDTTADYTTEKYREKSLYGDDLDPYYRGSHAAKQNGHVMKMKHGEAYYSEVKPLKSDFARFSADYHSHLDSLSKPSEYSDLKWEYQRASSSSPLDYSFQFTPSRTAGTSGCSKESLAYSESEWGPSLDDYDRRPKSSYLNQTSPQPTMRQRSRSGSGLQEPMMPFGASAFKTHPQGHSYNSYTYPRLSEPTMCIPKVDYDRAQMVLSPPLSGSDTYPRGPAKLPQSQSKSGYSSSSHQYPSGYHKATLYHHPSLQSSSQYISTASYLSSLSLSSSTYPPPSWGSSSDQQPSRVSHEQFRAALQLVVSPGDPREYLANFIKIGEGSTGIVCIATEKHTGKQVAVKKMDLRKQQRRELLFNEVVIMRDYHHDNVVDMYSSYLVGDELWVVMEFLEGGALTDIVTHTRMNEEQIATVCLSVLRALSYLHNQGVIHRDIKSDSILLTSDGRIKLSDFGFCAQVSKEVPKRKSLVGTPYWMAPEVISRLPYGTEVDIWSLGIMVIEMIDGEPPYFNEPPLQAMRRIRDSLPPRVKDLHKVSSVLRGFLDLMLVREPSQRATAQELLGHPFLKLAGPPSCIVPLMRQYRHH

[17] = biological target: Calcium/calmodulin-dependent protein kinase type II subunit gamma (Homo sapiens) (UniProt Q13555)
[18] = biological target: T2, Serine/threonine-protein kinase VRK3 (Homo sapiens) (UniProt Q8IV63)
T2 sequence (whole entry): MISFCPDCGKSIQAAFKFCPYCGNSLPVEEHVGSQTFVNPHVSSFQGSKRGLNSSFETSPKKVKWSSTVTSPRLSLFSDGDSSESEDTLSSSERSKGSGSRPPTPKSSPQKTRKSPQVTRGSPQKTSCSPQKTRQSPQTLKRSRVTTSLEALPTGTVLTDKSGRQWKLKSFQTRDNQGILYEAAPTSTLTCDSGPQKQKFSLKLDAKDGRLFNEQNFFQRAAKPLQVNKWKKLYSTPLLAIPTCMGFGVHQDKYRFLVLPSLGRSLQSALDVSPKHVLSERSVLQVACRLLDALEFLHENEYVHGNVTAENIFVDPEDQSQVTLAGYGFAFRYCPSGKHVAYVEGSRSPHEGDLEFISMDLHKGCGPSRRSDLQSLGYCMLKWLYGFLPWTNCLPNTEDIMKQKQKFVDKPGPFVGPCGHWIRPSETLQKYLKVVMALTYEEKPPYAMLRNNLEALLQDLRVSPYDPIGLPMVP

[19] = biological target: Dual specificity protein kinase CLK1 (Homo sapiens) (UniProt P49759)
[20] = biological target: Serine/threonine-protein kinase RIO2 (Homo sapiens) (UniProt Q9BVS4)
[21] = biological target: Cyclin-dependent kinase 2 (Homo sapiens, UniProt P24941)
[22] = biological target: Serine/threonine-protein kinase PLK1 (Homo sapiens) (UniProt P53350)
[23] = biological target: Ribosomal protein S6 kinase alpha-3 (Homo sapiens) (UniProt P51812)
[24] = biological target: Cyclin-dependent kinase-like 1 (Homo sapiens) (UniProt Q00532)
[25] = biological target: Cyclin-dependent kinase 6 (Homo sapiens) (UniProt Q00534)
[26] = biological target: Cyclin-dependent kinase 16 (Homo sapiens) (UniProt Q00536)
[27] = biological target: Serine/threonine-protein kinase 26 (Homo sapiens) (UniProt Q9P289)
[28] = biological target: Serine/threonine-protein kinase 38 (Homo sapiens) (UniProt Q15208)
Sequence of Serine/threonine-protein kinase 38 (Homo sapiens) (Q15208 2-465 limits assumed): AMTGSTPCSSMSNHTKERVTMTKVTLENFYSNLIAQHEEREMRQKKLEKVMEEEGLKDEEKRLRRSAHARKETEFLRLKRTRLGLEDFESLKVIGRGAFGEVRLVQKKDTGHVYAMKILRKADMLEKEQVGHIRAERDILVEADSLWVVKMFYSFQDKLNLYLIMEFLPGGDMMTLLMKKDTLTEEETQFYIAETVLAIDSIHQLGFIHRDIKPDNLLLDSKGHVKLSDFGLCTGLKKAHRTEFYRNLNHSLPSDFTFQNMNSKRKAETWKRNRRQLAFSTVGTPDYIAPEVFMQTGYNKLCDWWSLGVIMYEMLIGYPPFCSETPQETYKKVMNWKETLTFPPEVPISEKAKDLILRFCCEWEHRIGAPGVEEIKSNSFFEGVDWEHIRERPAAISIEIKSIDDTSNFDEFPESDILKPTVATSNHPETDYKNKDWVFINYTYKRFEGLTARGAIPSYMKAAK

[29] = biological target: T3, Dual specificity mitogen-activated protein kinase kinase 6 (Homo sapiens) (UniProt P52564)
T3 sequence (whole entry): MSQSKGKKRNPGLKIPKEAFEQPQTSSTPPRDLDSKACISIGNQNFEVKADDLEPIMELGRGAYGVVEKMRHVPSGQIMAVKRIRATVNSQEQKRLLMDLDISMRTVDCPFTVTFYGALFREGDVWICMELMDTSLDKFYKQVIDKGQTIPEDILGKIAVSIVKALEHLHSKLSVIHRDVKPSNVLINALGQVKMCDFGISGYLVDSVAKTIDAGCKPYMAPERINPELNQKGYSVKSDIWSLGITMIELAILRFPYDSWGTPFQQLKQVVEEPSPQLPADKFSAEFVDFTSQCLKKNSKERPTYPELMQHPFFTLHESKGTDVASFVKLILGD

Sequence of STE20-like serine/threonine-protein kinase (Homo sapiens) (Q9H2G2 whole entry, looked up): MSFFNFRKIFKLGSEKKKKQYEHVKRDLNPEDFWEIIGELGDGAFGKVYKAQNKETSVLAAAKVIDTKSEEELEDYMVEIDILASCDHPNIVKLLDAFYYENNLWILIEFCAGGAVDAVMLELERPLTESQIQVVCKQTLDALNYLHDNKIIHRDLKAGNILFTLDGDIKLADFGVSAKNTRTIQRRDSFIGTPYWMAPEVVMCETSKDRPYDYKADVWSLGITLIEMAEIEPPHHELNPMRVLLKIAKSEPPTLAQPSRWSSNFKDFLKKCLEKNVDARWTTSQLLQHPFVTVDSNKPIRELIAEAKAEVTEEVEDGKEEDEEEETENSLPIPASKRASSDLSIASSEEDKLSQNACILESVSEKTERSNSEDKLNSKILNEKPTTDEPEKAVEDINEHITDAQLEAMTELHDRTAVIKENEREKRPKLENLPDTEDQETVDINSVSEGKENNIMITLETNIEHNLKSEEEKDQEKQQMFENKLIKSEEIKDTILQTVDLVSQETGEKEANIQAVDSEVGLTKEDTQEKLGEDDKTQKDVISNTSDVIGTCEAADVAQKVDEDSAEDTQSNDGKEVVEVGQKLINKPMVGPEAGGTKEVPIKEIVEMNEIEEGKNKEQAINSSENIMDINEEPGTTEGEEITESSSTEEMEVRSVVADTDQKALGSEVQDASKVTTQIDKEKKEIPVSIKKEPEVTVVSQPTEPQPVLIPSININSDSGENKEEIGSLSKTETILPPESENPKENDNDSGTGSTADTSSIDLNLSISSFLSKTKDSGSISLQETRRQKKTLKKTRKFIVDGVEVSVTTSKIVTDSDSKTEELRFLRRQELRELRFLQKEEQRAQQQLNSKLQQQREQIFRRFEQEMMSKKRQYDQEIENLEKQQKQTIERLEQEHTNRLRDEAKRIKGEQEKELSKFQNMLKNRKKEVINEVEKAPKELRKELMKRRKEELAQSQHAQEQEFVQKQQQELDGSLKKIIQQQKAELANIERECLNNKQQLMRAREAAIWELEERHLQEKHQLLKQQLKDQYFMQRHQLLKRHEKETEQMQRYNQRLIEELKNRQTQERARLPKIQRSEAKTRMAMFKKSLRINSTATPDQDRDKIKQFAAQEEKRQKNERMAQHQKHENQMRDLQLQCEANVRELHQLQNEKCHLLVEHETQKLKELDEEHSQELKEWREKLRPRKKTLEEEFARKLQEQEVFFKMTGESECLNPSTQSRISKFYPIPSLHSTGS

SMILES | ΔTm [2] | ΔTm [3] | ΔTm [4] | ΔTm [5] | ΔTm [7] | ΔTm [9] | ΔTm [10] | ΔTm [11] | ΔTm [12] | ΔTm [13] | ΔTm [16] | ΔTm [17] | ΔTm [18] | ΔTm [20] | ΔTm [21] | ΔTm [22] | ΔTm [23] | ΔTm [24] | ΔTm [25] | ΔTm [15] | also measured
NC(=O)c1ccc2[nH]c(-c3ccc(Oc4ccc(Cl)cc4)cc3)nc2c1 | 0 °C | 0.8 °C | -0.2 °C | 0.5 °C | 0.5 °C | -0.9 °C | 0.1 °C | -0.8 °C | -1.2 °C | 1.7 °C | -0.2 °C | -0.1 °C | 1.2 °C | 2.4 °C | -0.7 °C | 4.4 °C | 1 °C | 0.1 °C | 0.6 °C | 1.2 °C | ΔTm [1]: 1.5 °C; ΔTm [6]: 1.3 °C; ΔTm [8]: 1.6 °C; ΔTm [19]: 1.2 °C; ΔTm [26]: -1.4 °C; ΔTm [27]: -0.1 °C; ΔTm [28]: 1.7 °C; ΔTm [29]: 0.4 °C
CN(C)C[C@@H]1CCn2cc(c3ccccc32)C2=C(C(=O)NC2=O)c2cn(c3ccccc23)CCO1 [RUBOXISTAURIN] | 7 °C | -0.5 °C | 0.5 °C | 0.5 °C | 0.8 °C | 1.3 °C | 3.1 °C | 5.8 °C | 0.1 °C | -0.5 °C | 0.9 °C | 1.6 °C | -0.3 °C | 1.8 °C | 0.9 °C | -0.9 °C | 0.9 °C | 0.3 °C | 0.5 °C | 1.1 °C | ΔTm [6]: 0.5 °C; ΔTm [8]: 0.9 °C; ΔTm [14]: 3.5 °C; ΔTm [19]: 5.4 °C; ΔTm [27]: -2 °C; ΔTm [28]: 0 °C; ΔTm [29]: 0.5 °C
CCN1/C(=C/C(C)=O)Sc2ccc(OC)cc21 | 0.7 °C | 0.1 °C | -0.4 °C | 0.3 °C | 0.3 °C | -0.1 °C | -0.1 °C | 0.2 °C | 0.5 °C | -0.4 °C | 0 °C | 0.1 °C | 0.1 °C | -0.2 °C | 0.1 °C | 0.3 °C | -0.6 °C | 0.4 °C | 0.4 °C | 0.9 °C | ΔTm [1]: -0.6 °C; ΔTm [14]: 0.1 °C; ΔTm [26]: -0.5 °C; ΔTm [27]: -0.3 °C; ΔTm [28]: 0.5 °C; ΔTm [29]: 0.3 °C

Continued, in another order:

ΔTm [2] | ΔTm [3] | ΔTm [4] | ΔTm [5] | ΔTm [7] | ΔTm [9] | ΔTm [10] | ΔTm [11] | ΔTm [12] | ΔTm [13] | ΔTm [16] | ΔTm [17] | ΔTm [18] | ΔTm [20] | ΔTm [21] | ΔTm [22] | ΔTm [23] | ΔTm [24] | ΔTm [25] | SMILES | ΔTm [15] | also measured
1.1 °C | 0.1 °C | 2.4 °C | 1.8 °C | 0 °C | 5.5 °C | 4.8 °C | 5.1 °C | 4.9 °C | 4.3 °C | 2.1 °C | 2.5 °C | 1.9 °C | 1.2 °C | 8.1 °C | 1.1 °C | 6.1 °C | 3.1 °C | 2.9 °C | O=C1Nc2ccc(S(=O)(=O)O)cc2/C1=C1/Nc2ccccc2/C1=N\O | 6.4 °C | ΔTm [1]: 1.2 °C; ΔTm [6]: 3.7 °C; ΔTm [8]: 2.5 °C; ΔTm [14]: 4.5 °C; ΔTm [19]: 3.9 °C; ΔTm [26]: 5.9 °C; ΔTm [27]: 1.2 °C; ΔTm [28]: 1.9 °C; ΔTm [29]: 3.5 °C
0.2 °C | 0.5 °C | 0.2 °C | 0.3 °C | 0 °C | 0.4 °C | 0.3 °C | 2 °C | 0.1 °C | 0.8 °C | 0 °C | 0.2 °C | 1 °C | 0.4 °C | 0.5 °C | 2.3 °C | 0.3 °C | 0.1 °C | 0.2 °C | O=c1cc(N2CCOCC2)oc2c1ccc1ccccc12 | 1.8 °C | ΔTm [1]: -0.2 °C; ΔTm [6]: 0 °C; ΔTm [8]: 0.6 °C; ΔTm [14]: -0.3 °C; ΔTm [19]: 0.8 °C; ΔTm [26]: -0.4 °C; ΔTm [27]: 0.5 °C; ΔTm [28]: 0.1 °C; ΔTm [29]: 0 °C
